# Assays:
# Assay in all cases: c-ponatinib pulldown LC-MS/MS
# Type in all cases: binding
# STK10 = STK10 (Homo sapiens, UniProt O94804)
# Description: (§1) Drug-affinity matrices were prepared as described previously.[51] In brief, 25 nmol of c-ponatinib were immobilized on 50 μl NHS-activated Sepharose 4 Fast Flow beads (GE Healthcare Bio-Sciences AB, Uppsala, Sweden). 10 mg whole cell lysate was used as protein input per replicate. Affinity chromatography and elution were performed in duplicate. After elution, the enriched proteins were reduced with dithiothreitol (DTT) and cysteine residues were alkylated by incubation with iodoacetamide. The samples were digested with modified porcine trypsin (Promega). Five percent of the digested eluates were purified and concentrated by C18 reversed-phase material. Subsequently, samples were analyzed in duplicates by gel-free one-dimensional LCMS.
# (§2) Precursor and MS/MS peaks were extracted from the RAW files and saved in the MGF format using msconvert tool (ProteoWizard Library v2.1.2708, www.proteowizard.sourceforge.net) for subsequent protein identification. An initial database search was performed with broader mass tolerance and conservative score threshold to re-calibrate the mass lists for optimal final protein identification. For the initial protein database search, Mascot (www.matrixscience.com, v2.3.02) was used. Error tolerances on the precursor and fragment ions were ±10 p.p.m. and ±0.6 Da, respectively, and the database search limited to fully-tryptic peptides with maximum one missed cleavage, carbamidomethyl cysteine and methionine oxidation set as fixed and variable modifications, respectively. The Mascot peptide ion score threshold was set to 30, and at least three peptide identifications per protein were required. Searches were performed against the human UniProtKB/SwissProt database (www.uniprot.org release 2013.01) including all protein isoforms. The initial peptide identifications were used to deduce independent linear transformations for precursor and fragment masses that would minimize the mean square deviation of measured masses from theoretical. Re-calibrated mass list files were searched against the same human protein database by a combination of Mascot and Phenyx (GeneBio SA, Geneva, Switzerland; version 2.5.14) search engines using narrower mass tolerances (±4 p.p.m. and ±0.3 Da). One missed tryptic cleavage site was allowed. Carbamidomethyl cysteine was set as a fixed modification and oxidized methionine was set as a variable modification. To validate the proteins, Mascot and Phenyx output files were processed by internally developed parsers. Proteins with ≥2 unique peptides above a score T1, or with a single peptide above a score T2 were selected as unambiguous identifications. Additional peptides for these validated proteins with score >T3 were also accepted. For Mascot searches, the following thresholds were used: T1=14, T2=40 and T3=10; Phenyx thresholds were set to 4.2, 4.75 and 3.5, respectively (P-value<10^−3). The validated proteins retrieved by the two algorithms were merged, any spectral conflicts discarded and grouped according to shared peptides. A false discovery rate of <1% for protein identifications and <0.1% for peptides (including the ones exported with lower scores) was determined by applying the same procedure against a database of reversed protein sequences. […] In addition to Mascot protein scores that were proposed as an estimate of protein abundance by the original algorithm, the modified version also included Phenyx protein scores and spectral counts. The algorithm first estimated three measure-specific P-values for each putative interaction, and, in contrast to,[69] P-value calculation utilized the quantiles of the measurements rather than the original data. The Fisher's method was used to combine the three resulting P-values into a single P-value for drug–protein interaction specificity. We have also correlated interaction P-values with the magnitude of competition effect represented by the fold reduction of spectral counts on free compound competition. […]
# IRAK1 = IRAK1 (Homo sapiens, UniProt P51617)
# Sequence of IRAK1 (P51617 whole entry): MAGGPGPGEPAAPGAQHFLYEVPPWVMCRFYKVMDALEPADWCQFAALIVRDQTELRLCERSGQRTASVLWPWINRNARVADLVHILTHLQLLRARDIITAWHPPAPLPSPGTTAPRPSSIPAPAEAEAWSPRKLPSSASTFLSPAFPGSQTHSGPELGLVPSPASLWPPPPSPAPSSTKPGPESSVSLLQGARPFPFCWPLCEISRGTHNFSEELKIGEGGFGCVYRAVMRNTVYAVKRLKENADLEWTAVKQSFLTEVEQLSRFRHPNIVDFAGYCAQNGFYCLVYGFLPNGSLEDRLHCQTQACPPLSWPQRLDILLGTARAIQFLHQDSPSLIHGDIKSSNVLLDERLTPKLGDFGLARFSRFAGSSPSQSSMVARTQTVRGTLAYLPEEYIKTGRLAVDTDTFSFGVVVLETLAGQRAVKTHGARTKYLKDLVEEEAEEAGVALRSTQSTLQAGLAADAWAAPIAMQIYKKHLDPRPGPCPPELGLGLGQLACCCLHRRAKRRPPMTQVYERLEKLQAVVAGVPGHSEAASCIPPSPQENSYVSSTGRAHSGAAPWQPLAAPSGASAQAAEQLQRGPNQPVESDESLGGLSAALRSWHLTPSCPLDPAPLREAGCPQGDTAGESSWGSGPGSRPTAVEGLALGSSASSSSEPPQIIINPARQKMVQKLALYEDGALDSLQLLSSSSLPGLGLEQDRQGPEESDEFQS
# Description: as §1, §2
# RIPK3 = RIPK3 (Homo sapiens, UniProt Q9Y572)
# Sequence of RIPK3 (Q9Y572 whole entry): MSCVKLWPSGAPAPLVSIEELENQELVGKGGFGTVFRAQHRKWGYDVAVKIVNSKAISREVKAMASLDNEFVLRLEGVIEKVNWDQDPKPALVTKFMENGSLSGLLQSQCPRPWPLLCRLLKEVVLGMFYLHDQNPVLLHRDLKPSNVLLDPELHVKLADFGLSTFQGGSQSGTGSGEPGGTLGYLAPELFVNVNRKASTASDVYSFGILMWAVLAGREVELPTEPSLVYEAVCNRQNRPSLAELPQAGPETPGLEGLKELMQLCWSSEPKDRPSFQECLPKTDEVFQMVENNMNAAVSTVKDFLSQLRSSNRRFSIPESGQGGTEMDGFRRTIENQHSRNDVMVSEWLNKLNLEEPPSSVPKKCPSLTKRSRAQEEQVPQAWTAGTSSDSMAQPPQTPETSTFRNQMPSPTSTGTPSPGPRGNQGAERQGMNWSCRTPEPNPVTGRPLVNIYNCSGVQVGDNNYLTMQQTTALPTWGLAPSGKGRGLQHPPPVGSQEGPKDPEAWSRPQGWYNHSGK
# Description: as §1, §2
# UNC119B = UNC119B (Homo sapiens, UniProt A6NIH7)
# Sequence of UNC119B (A6NIH7 whole entry): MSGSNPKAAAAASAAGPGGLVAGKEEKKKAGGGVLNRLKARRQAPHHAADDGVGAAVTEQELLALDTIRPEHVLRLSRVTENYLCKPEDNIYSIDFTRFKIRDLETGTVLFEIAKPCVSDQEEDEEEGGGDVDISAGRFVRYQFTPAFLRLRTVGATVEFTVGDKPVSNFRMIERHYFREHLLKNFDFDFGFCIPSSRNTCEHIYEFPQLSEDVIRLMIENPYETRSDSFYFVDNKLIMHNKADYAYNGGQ
# Description: as §1, §2
# PLEKHF2 = molecular target: T1, PLEKHF2 (Homo sapiens, UniProt Q9H8W4)
# T1 sequence (Q9H8W4 1-249): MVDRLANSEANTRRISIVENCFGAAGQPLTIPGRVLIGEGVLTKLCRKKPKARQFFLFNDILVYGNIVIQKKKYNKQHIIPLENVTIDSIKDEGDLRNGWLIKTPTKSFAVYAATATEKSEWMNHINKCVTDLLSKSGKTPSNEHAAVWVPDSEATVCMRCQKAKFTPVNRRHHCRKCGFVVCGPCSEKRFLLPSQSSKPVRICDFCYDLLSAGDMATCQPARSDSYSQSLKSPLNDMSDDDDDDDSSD
# Description: as §1, §2
# HSPA8 = HSPA8 (Homo sapiens, UniProt P11142)
# Sequence of HSPA8 (P11142 whole entry): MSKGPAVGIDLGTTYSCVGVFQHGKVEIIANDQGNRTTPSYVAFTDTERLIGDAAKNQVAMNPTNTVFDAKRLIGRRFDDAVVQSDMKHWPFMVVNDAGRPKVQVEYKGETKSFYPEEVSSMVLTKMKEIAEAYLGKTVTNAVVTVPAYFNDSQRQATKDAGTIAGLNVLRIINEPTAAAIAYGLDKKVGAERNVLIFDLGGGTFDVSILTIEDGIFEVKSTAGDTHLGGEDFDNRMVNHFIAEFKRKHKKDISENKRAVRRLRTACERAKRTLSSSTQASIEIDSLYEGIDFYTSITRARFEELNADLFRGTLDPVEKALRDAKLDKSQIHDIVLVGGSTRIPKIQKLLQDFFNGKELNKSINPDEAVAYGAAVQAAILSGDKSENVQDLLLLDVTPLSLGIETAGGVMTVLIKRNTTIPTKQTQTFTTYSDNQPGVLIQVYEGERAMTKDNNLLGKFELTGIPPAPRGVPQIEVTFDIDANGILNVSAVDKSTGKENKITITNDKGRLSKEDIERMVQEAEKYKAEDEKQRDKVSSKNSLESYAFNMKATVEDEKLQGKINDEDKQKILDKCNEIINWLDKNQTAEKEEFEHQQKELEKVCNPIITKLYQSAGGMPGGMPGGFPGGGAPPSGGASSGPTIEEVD
# Description: as §1, §2
# MAP3K7 = molecular target: T2, MAP3K7 (Homo sapiens, UniProt O43318)
# T2 sequence (O43318 1-606): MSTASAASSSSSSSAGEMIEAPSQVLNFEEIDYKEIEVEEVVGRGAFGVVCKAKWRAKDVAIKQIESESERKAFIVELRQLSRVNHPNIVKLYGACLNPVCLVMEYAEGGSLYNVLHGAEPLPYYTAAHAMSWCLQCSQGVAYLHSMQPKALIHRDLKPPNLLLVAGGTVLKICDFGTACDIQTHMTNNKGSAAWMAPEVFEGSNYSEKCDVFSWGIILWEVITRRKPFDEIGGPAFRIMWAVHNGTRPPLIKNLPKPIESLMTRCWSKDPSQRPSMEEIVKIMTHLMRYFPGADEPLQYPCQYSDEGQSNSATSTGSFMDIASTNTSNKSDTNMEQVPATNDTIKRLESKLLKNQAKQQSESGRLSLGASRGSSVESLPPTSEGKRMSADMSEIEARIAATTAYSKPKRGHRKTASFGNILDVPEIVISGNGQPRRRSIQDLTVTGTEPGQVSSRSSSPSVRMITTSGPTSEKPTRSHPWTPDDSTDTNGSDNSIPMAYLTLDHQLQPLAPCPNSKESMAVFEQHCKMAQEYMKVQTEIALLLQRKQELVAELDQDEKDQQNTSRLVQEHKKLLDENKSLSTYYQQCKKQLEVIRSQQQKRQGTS
# Description: as §1, §2
# Sequence of STK10 (O94804 whole entry): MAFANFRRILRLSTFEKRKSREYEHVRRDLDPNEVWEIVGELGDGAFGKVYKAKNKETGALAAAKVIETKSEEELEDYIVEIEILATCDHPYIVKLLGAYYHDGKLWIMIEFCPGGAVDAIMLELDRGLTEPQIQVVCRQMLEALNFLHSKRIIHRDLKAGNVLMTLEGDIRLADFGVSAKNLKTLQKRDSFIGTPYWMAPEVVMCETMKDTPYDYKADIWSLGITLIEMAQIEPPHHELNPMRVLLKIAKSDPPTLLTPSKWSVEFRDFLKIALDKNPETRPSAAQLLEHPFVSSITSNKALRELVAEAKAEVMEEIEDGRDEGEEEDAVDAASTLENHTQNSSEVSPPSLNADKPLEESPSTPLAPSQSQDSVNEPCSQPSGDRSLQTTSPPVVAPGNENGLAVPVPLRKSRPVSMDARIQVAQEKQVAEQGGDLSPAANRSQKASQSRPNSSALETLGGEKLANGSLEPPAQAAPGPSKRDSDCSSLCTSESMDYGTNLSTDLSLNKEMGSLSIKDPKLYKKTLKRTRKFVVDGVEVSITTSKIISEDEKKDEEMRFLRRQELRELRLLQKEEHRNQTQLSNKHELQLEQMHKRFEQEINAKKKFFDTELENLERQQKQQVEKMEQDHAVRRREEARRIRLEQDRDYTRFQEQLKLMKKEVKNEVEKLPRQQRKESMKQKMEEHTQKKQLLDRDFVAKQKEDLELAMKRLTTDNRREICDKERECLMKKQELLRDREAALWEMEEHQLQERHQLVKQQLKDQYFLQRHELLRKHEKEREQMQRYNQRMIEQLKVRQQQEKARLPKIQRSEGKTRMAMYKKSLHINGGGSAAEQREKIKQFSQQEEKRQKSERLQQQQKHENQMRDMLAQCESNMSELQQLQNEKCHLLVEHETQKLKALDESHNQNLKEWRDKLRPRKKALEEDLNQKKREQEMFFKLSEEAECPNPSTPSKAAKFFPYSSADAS
smiles,measurement,setting,value
Cc1ccc(C(=O)Nc2ccc(CN3CCN(CCCN)CC3)c(C(F)(F)F)c2)cc1C#Cc1cnc2cccnn12 [c-ponatinib],Av. SC comp.,STK10; + free ponatinib,0
same,Total SC comp.,STK10; + free ponatinib,0
same,Av. SC,STK10; no competitor,5.5
same,Total SC,STK10; no competitor,22
same,Av. SC comp.,IRAK1; + free ponatinib,4
same,Total SC comp.,IRAK1; + free ponatinib,16
same,Av. SC,IRAK1; no competitor,24.25
same,Total SC,IRAK1; no competitor,97
same,Av. SC comp.,RIPK3; + free ponatinib,0
same,Total SC comp.,RIPK3; + free ponatinib,0
same,Av. SC,RIPK3; no competitor,17
same,Total SC,RIPK3; no competitor,68
same,Av. SC comp.,UNC119B; + free ponatinib,0
same,Total SC comp.,UNC119B; + free ponatinib,0
same,Av. SC,UNC119B; no competitor,6
same,Total SC,UNC119B; no competitor,24
same,Av. SC comp.,PLEKHF2; + free ponatinib,0
same,Total SC comp.,PLEKHF2; + free ponatinib,0
same,Av. SC,PLEKHF2; no competitor,8.25
same,Total SC,PLEKHF2; no competitor,33
same,Av. SC comp.,HSPA8; + free ponatinib,17.25
same,Total SC comp.,HSPA8; + free ponatinib,69
same,Av. SC,HSPA8; no competitor,29.25
same,Total SC,HSPA8; no competitor,117
same,Av. SC comp.,MAP3K7; + free ponatinib,2.25
same,Total SC comp.,MAP3K7; + free ponatinib,9
same,Av. SC,MAP3K7; no competitor,19.5
same,Total SC,MAP3K7; no competitor,78

# Reference: article PMC4669708 (Cell Death & Disease, 2015)
